These results are taken from ChEMBL document CHEMBL5308504, “Tm Shift (DSF) assay results for EUbOPEN Chemogenomics Library” (2023).

A word on the ΔTm: it is the shift of the melting midpoint relative to a reference.

Values joined by “and” are separate entries in the source; they are usually repeats but may differ in a detail not shown here. Equal values may be shown once.

One assay has as its target T1, Peregrin (Homo sapiens) (UniProt P55201).
T1 sequence (whole entry): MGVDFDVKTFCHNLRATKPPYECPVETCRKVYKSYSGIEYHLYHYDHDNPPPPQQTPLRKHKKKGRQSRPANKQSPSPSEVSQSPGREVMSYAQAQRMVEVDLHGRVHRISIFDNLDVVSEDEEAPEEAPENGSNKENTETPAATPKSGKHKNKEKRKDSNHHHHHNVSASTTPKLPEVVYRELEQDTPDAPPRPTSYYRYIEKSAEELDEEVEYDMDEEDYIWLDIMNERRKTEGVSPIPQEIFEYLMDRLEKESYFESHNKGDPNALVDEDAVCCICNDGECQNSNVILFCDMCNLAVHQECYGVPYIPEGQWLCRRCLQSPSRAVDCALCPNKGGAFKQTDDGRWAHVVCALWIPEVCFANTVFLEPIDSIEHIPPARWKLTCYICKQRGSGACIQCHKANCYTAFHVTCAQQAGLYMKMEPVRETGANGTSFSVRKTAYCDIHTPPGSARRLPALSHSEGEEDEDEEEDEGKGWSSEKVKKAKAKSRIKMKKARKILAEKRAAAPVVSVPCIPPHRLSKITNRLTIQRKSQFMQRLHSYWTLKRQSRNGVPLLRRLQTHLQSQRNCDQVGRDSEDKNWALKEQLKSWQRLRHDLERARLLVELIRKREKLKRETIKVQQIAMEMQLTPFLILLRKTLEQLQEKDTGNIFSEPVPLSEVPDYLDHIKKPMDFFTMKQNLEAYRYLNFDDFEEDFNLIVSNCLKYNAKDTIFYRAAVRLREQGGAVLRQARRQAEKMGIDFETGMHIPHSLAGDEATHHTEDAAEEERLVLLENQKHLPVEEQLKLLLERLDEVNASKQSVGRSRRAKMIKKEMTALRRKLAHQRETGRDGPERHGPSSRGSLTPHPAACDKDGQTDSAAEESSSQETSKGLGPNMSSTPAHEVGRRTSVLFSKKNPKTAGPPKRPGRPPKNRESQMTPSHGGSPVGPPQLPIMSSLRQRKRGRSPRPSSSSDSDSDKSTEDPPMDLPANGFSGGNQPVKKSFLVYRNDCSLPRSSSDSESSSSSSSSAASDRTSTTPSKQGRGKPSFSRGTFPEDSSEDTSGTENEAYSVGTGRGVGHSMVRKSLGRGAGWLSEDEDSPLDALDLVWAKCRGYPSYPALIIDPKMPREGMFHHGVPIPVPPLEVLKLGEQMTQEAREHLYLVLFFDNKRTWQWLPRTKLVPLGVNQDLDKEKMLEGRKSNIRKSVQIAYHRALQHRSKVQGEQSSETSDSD
Particulars: Compound concentration 20.0 uM, Protein concentration 2.0 uM, Result type QC Liability.

In assay [1] the target is Fibroblast growth factor receptor 3 (Homo sapiens) (UniProt P22607). Particulars: Compound concentration 20.0 uM, Protein concentration 2.0 uM, Result type QC Liability.
Sequence of Fibroblast growth factor receptor 3 (Homo sapiens) (P22607 23-806 limits assumed): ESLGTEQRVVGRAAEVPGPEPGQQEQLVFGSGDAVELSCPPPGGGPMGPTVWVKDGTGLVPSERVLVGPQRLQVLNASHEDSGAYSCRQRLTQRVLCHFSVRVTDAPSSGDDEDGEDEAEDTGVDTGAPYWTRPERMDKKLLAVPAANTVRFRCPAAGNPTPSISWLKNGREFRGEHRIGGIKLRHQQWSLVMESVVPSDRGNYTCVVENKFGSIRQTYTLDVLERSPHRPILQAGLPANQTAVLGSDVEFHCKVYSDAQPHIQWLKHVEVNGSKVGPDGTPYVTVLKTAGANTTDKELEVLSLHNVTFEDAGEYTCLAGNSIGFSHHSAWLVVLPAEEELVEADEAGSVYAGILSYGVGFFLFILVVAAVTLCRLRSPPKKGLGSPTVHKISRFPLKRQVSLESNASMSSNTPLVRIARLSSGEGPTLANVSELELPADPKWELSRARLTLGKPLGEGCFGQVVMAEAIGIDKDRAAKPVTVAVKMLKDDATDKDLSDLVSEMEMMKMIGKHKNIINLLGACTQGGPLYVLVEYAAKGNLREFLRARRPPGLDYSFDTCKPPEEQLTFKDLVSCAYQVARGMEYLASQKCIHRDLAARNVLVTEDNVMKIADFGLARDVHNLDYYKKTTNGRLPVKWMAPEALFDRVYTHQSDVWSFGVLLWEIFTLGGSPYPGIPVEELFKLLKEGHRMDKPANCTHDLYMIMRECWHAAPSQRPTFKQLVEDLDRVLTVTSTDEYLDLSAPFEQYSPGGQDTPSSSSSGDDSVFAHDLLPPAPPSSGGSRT

As for `CCc1ccccc1C(=O)Nc1n[nH]c2c(C)c(F)c(C3C(C#N)=C(C)N(C)C(C)=C3C#N)cc12`, the ΔTm on Peregrin (Homo sapiens) was -1.74 °C; in assay [1], 2.59 °C.

Take `CCS(=O)(=O)Nc1cccc(Oc2cc(F)cc(Nc3ccc(I)cc3F)c2NS(=O)(=O)C2CC2)c1`: the ΔTm was -1.34 °C at Peregrin (Homo sapiens) and -1.54 °C in assay [1].

Regarding `N=C(N)NCCC[C@H](NC(=O)C(c1ccccc1)c1ccccc1)C(=O)NCc1ccc(CNC(N)=O)cc1`, the ΔTm on Peregrin (Homo sapiens) is -1.9 °C; in assay [1] it was 0.81 °C.

For the compound `Cc1ncsc1-c1ccc(CNC(=O)[C@@H]2C[C@@H](O)CN2C(=O)[C@@H](NC(=O)CCCCNC(=O)c2ccc(-c3ccc(N4CCN(C)CC4)c(NC(=O)c4c[nH]c(=O)cc4C(F)(F)F)c3)cc2)C(C)(C)C)cc1`, the shift in melting temperature (ΔTm) on Peregrin (Homo sapiens) was 1.18 °C; in assay [1], -2.23 °C.

As to `Fc1ccc(Cl)cc1-c1nc(Nc2ccncc2)c2nccnc2n1`, the ΔTm at Peregrin (Homo sapiens) is -0.76 °C; in assay [1], 0.54 °C.

`COc1c(OCCCN2CCOCC2)ccc2c1N=C(NC(=O)c1cnc(N)nc1)N1CCN=C21`: the ΔTm on Peregrin (Homo sapiens) is -0.93 °C; in assay [1] it was 0.63 °C.

Consider `CN(C)C/C=C/C(=O)Nc1cccc(S(=O)(=O)N2CCC(NC(=O)c3n[nH]cc3NC(=O)c3c(Cl)cc(Cl)cc3Cl)CC2)c1`, for which the results for the thermal shift (ΔTm) (at Peregrin (Homo sapiens); in assay [1]) were -0.81 °C and 6.8 °C, respectively.

Regarding `CCCCc1oc2ccccc2c1C(=O)c1cc(I)c(OCCN(CC)CC)c(I)c1`, the ΔTm on Peregrin (Homo sapiens) was -1.31 °C; in assay [1] it was 0.79 °C.

Consider `CC(C)(C#Cc1ccc(NC(=O)COc2ccccc2C(=O)c2ccccc2)c(Cl)c1)C(=O)O`, for which the ΔTm was -4.06 °C on Peregrin (Homo sapiens) and 0.52 °C in assay [1].

Regarding `C=CC(=O)Nc1ccc(C(=O)Nc2[nH]nc3c2CN(C(=O)N[C@H](CN(C)C)c2ccccc2)C3(C)C)cc1`, the figures for the ΔTm (at Peregrin (Homo sapiens); in assay [1]) were -0.82 °C and 7.32 °C, respectively.

Turning to `CCOCCn1cc(C(=O)Nc2ccc(-n3nc(-c4cccnc4)cc3C(F)(F)F)cn2)ccc1=O`, the values for the ΔTm (at Peregrin (Homo sapiens); in assay [1]) were -3.33 °C and 0.41 °C, respectively.

As for `NCc1ccc(OCCCc2sc(-c3ccc4c(c3)/C(=N/Nc3nc5ccccc5s3)CCC4)nc2C(=O)O)cc1`, the ΔTm is -3.06 °C at Peregrin (Homo sapiens) and 0.58 °C in assay [1].

`CC(=O)Nc1c(F)cc(C(=O)N[C@H]2CC[C@H](O)CC2)cc1O[C@@H](C)c1ccccc1`: the ΔTm at Peregrin (Homo sapiens) was -0.36 °C; in assay [1], 0.45 °C.

On to `CNC(=O)c1ccc2c(c1)NC(=O)/C2=C(\Nc1ccc(CN2CCCCC2)cc1)c1ccccc1`, for which the ΔTm on Peregrin (Homo sapiens) was -0.66 °C; in assay [1] it was 3.97 °C.

As to `Cc1ccc(-c2cn3nc(C(=O)NC4(c5ccc(F)cc5)CN(C)C4)c(C(C)C)c3c(=O)[nH]2)cc1C`, the figures for the ΔTm (at Peregrin (Homo sapiens); in assay [1]) were -2.45 °C and 0.62 °C, respectively.

For `O=C(Cc1ccccc1)Nc1nnc(N2C[C@H]3C[C@@H]2CN3c2cccnn2)s1`, the ΔTm was -0.88 °C at Peregrin (Homo sapiens) and 0.46 °C in assay [1].

On to `COc1ccc(F)c(F)c1C(=O)c1cnc(NC2CCN(S(C)(=O)=O)CC2)nc1N`, for which the thermal shift (ΔTm) at Peregrin (Homo sapiens) is -0.92 °C; in assay [1] it was 1.01 °C.

As to `NC(=O)C1CCCc2c1[nH]c1ccc(Cl)cc21` (stereo not drawn), the thermal shift (ΔTm) on Peregrin (Homo sapiens) is -0.12 °C; in assay [1], 0.98 °C.

`CS(=O)(=O)CCNCc1ccc(-c2ccc3ncnc(Nc4ccc(OCc5cccc(F)c5)c(Cl)c4)c3c2)o1`: the figures for the ΔTm (on Peregrin (Homo sapiens); in assay [1]) were -1.41 °C and 0.79 °C, respectively.

Turning to `CC1(C)Oc2ncnc(N)c2N=C1c1ccc([C@H]2CC[C@H](CC(=O)O)CC2)cc1`, the ΔTm on Peregrin (Homo sapiens) is -2.72 °C; in assay [1] it was 0.43 °C.

`COc1ccc(C(F)(F)F)cc1NC(=O)Nc1ccc(Oc2cc(C)nc(N)n2)c2ccccc12`: the ΔTm amounted to 1.59 °C on Peregrin (Homo sapiens) and 2.41 °C in assay [1].

Take `CCOC(=O)C1Cc2ccccc2CN1C(=O)c1ccc(SC)s1` (stereo not drawn): the ΔTm on Peregrin (Homo sapiens) is -1.13 °C; in assay [1], 0.41 °C.

For `CC(C)(O)[C@H]1CC[C@H](Nc2ccc3ncc(-c4cccc(C(F)(F)F)c4)n3n2)CC1`, the ΔTm on Peregrin (Homo sapiens) is 3.48 °C; in assay [1] it was 0.8 °C.

Turning to `O=C(Nc1snnc1C(=O)Nc1ccc(N2CCCC2)cc1)c1cncc(C(F)(F)F)c1`, the ΔTm at Peregrin (Homo sapiens) amounted to 0.2 °C; in assay [1], 0.45 °C.

Consider `NS(=O)(=O)c1ccc(Nc2nc(OCC3CCCCC3)c3nc[nH]c3n2)cc1`, for which the ΔTm at Peregrin (Homo sapiens) stood at 1.2 °C; in assay [1], 0.37 °C.

For `COC(=O)c1sccc1S(=O)(=O)Nc1ccc(Nc2ccccc2)cc1OC`, the ΔTm is -1.04 °C at Peregrin (Homo sapiens) and 0.39 °C in assay [1].

With `Cc1cc(CN(CC(=O)Nc2ccc(Cl)cc2Cl)C2CCCCC2)ccc1OCC(=O)O`, the values for the ΔTm (at Peregrin (Homo sapiens); in assay [1]) were -6.07 °C and -0.33 °C, respectively.

Consider `CCOC(=O)/N=C(\N)c1ccc(OCc2cccc(COc3ccc(C(C)(C)c4ccc(OC(=O)OCC)cc4)cc3)c2)cc1`, for which the ΔTm on Peregrin (Homo sapiens) was -8.55 °C; in assay [1], 0.54 °C.

For `COc1ccc2c(O[C@@H]3C[C@H]4C(=O)N[C@]5(C(=O)NS(=O)(=O)C6(C)CC6)CC5/C=C\CCCCC[C@H](NC(=O)c5ccn(C)n5)C(=O)N4C3)cc(OC(C)C)nc2c1C` (stereo partly drawn), the thermal shift (ΔTm) at Peregrin (Homo sapiens) is -0.57 °C; in assay [1], 0.93 °C.

Take `CCNC(=O)c1ccc2c(c1)NC(=O)/C2=C(\Nc1ccc(CN(C)C)cc1)c1ccccc1`: the ΔTm on Peregrin (Homo sapiens) is -2.4 °C and -1.23 °C; in assay [1] it was 1.15 °C and 1.47 °C.

Regarding `N[C@@H]1CCCC[C@H]1Oc1ccc2ncc(-c3cc4ccccc4o3)n2n1`, the ΔTm on Peregrin (Homo sapiens) was -2.67 °C; in assay [1] it was 0.36 °C.

Consider `CS(=O)(=O)c1cc(C2(NC(=O)c3cncc4c3cnn4-c3ccc(F)cc3)CC2)ccn1`, for which the ΔTm at Peregrin (Homo sapiens) was -2.04 °C; in assay [1], 0.85 °C.

Turning to `CNC(=O)COc1cc2cc(Nc3nc(N4C[C@H](C)C[C@H](C)C4)ncc3Cl)ccc2n(C)c1=O`, the ΔTm at Peregrin (Homo sapiens) is -2.08 °C; in assay [1], 0.62 °C.

Regarding `Cc1cc(OC2CCS(=O)(=O)CC2)cc(C)c1-c1cccc(COc2ccc(C(=O)O)c(F)c2)c1`, the ΔTm at Peregrin (Homo sapiens) was -2.62 °C; in assay [1], 1.28 °C.

Turning to `O=C(Cc1ccccc1[N+](=O)[O-])Nc1ccc(-c2ccc(C(O)(C(F)(F)F)C(F)(F)F)cc2F)cc1`, the shift in melting temperature (ΔTm) turned out to be 1.8 °C at Peregrin (Homo sapiens) and 1.47 °C in assay [1].

Regarding `CCn1c(CNC(=O)c2ncc(C)nc2N)[n+](CC)c2ccc(C(=O)N(C)CCN(C)C)cc21`, the ΔTm on Peregrin (Homo sapiens) was -1.78 °C; in assay [1] it was 0.52 °C.

In the case of `CC/C(=C(\c1ccccc1)c1ccc(OCCN(C)C)cc1)c1ccccc1`, the results for the shift in melting temperature (ΔTm) (on Peregrin (Homo sapiens); in assay [1]) were -3.71 °C and 0.3 °C, respectively.

For the compound `Oc1c(-c2cccnc2)cnn1-c1ccccn1`, the ΔTm is -1.78 °C on Peregrin (Homo sapiens) and 0.56 °C in assay [1].

Turning to `CC[C@@H](C(=O)OC)n1c(=O)c2ccccc2n(Cc2cn(C)c3cccc(C)c23)c1=O`, the ΔTm was -3.31 °C on Peregrin (Homo sapiens) and 1.21 °C in assay [1].

Consider `CC(C)S(=O)(=O)c1ccccc1Nc1nc(N[C@@H]2CCCN(CCCCCCCNC(=O)COc3cccc4c3C(=O)N(C3CCC(=O)N(C)C3=O)C4=O)C2)ncc1Cl` (stereo partly drawn), for which the ΔTm on Peregrin (Homo sapiens) is -2.55 °C; in assay [1], 8.15 °C.

As to `COc1cc2c(cc1CC=C(C)C)C(=O)C[C@@H](c1ccc(O)cc1)O2`, the ΔTm at Peregrin (Homo sapiens) came out at 1.25 °C; in assay [1], 2.85 °C.

Consider `CC#CCC(C)[C@H](O)/C=C/[C@@H]1[C@H]2C/C(=C/CCCC(=O)O)C[C@H]2C[C@H]1O` (stereo partly drawn), for which the ΔTm was -2.03 °C on Peregrin (Homo sapiens) and 0.4 °C in assay [1].

Turning to `CCOC(=O)Nc1ccc2c(c1)N(C(=O)CN(CC)CC)c1ccccc1CC2`, the ΔTm at Peregrin (Homo sapiens) was -1.21 °C; in assay [1] it was 0.66 °C.

In the case of `N#CN1CC[C@H](C(=O)Nc2nc3c(s2)CN(C(=O)CN=[N+]=[N-])CC3)C1`, the ΔTm at Peregrin (Homo sapiens) is -1.51 °C; in assay [1], 1.09 °C.
